# From patent US8664179B2, “Identification of novel antagonist toxins of T-type calcium channel for analgesic purposes” (Centre National de la Recherche Scientifique (CNRS), priority 2009, dated 2014)
# Ends that are not written are not given here.
# Tests used:
# human Cav3.2 = target: T1, human Cav3.2 (Homo sapiens, UniProt O95180); assay: Double microelectrode imposed-voltage recording of CaV3.2 current in Xenopus oocytes; format: cell-based; conditions: 5 mM barium, depolarization at -30 mV from -100 mV, after 30 seconds (FIG. 2)
# T1 construct: expressed in transfected cells; host or cells: Xenopus laevis oocytes (cDNA injection)
# T1 sequence (O95180 whole entry): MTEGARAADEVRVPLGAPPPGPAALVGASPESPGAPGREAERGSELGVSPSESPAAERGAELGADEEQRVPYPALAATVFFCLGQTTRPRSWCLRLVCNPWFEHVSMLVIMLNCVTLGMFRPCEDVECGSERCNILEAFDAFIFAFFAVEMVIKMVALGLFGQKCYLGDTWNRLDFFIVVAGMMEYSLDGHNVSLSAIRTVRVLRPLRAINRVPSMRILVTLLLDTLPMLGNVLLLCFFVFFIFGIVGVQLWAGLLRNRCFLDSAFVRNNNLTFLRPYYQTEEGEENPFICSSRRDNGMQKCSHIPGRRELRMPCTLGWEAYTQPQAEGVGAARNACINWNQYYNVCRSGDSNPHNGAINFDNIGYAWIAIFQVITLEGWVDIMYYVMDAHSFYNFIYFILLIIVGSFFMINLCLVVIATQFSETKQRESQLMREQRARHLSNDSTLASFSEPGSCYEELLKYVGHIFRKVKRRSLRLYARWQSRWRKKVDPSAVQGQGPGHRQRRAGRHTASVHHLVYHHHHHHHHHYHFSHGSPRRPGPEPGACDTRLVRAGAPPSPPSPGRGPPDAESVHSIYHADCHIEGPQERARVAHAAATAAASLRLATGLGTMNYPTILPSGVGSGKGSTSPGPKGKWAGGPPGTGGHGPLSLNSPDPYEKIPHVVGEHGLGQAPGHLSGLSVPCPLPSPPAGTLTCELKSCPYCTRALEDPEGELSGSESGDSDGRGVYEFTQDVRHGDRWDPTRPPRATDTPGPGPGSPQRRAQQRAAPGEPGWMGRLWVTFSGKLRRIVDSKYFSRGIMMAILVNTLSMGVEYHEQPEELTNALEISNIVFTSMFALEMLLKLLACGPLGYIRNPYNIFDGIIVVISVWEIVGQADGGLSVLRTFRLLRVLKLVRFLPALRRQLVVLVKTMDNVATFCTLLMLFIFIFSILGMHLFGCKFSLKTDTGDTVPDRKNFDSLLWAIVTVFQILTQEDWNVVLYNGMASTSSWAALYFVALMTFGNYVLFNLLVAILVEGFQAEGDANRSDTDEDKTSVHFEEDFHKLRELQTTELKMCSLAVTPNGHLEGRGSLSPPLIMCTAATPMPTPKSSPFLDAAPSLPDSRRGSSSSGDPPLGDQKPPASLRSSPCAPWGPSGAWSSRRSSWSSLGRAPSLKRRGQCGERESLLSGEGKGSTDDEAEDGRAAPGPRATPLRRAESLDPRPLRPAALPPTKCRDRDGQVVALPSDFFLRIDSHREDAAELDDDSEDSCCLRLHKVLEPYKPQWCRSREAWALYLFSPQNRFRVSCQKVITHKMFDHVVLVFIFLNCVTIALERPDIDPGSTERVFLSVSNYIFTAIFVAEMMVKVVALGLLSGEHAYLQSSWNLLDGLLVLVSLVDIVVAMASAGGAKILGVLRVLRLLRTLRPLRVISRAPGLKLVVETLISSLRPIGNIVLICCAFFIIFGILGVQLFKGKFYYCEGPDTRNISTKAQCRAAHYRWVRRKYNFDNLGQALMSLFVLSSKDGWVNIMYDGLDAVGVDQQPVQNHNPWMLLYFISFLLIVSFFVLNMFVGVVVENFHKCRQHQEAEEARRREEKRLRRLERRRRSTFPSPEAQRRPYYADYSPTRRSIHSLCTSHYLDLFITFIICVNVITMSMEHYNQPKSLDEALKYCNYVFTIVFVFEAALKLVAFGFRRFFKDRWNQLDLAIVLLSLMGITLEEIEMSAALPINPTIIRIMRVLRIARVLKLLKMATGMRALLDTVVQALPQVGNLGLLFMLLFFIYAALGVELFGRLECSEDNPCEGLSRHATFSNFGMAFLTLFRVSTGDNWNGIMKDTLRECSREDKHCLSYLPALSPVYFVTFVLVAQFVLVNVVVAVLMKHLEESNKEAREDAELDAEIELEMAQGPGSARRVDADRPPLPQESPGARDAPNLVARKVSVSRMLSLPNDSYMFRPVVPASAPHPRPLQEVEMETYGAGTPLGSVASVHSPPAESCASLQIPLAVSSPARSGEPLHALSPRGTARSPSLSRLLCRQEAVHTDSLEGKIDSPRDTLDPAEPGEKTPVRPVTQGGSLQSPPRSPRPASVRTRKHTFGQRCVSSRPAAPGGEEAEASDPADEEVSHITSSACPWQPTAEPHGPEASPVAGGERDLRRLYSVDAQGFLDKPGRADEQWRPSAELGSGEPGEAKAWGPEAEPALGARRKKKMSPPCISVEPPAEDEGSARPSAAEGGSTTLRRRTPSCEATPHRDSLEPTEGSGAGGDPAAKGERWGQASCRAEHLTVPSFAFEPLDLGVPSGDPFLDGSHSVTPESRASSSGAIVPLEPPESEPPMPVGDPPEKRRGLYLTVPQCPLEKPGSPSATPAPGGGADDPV
# Procedure: The current is recorded in a solution containing 5 mM barium as charge carrier and it is produced by depolarization at −30 mV starting from a rest potential of −100 mV.
# The cDNA coding for human Cav3.2 is injected into oocytes of Xenopus (Xenopus laevis) as described in Altier, C., Dubel, S. J., Barrére, C., Jarvis, S. E., Stotz, S. C., Spaetgens, R. L., Scott, J. D., Cornet, V., De Waard, M., Zamponi, G. W., Nargeot, J. and Bourinet, E. (2002) “Trafficking of L-type calcium channels mediated by postsynaptic scaffolding protein AKAP79.” J. Biol. Chem., 277, 33598-33603 (Ref 5) and in Dubel, S. J., Altier, C., Chaumont, S., Lory, P., Bourinet, E. and Nargeot, J. (2004) “Plasma Membrane Expression of T-type Calcium Channel {alpha}1 Subunits Is Modulated by High Voltage-activated Auxiliary Subunits.” J Biol Chem, 279, 29263-29269 (Ref 6). The currents are recorded by the technique of imposed voltage by double microelectrode using a [sequence]500 amplifier (registered trademark) (MOLECULAR DEVICES (registered trademark)) controlled by the PCLAMP9 software (registered trademark). […] The fractions (10 μl) are applied manually, directly on the oocyte recorded by means of a pipette.
# [1] = target: T2, human Cav3.2 calcium channel (Homo sapiens, UniProt O95180); assay: Whole-cell patch clamp on HEK293 cells stably expressing the human Cav3.2 calcium channel; format: cell-based; conditions: CaV3.2 current, HEK293, FIG. 8
# T2 construct: expressed in transfected cells
# T2 sequence (O95180 whole entry): as above
# Procedure: Starting from this stock concentration, the peptides were diluted in a solution corresponding to the extracellular solution used for the patch clamp analysis. This solution has the following composition (in mM): NaCl 135, TEACl 20, HEPES 10, CaCl2 2, MgCl21 (pH 7.3 with TEAOH).
# HEK293 cells (ATCC) stably expressing the complementary DNA sequence of the human Cav3.2 calcium channel were used. At each passage of the cell line, cells were seeded at low density on culture dishes for “patch clamp” analysis (molecular electrophysiology).
# The electrophysiological recordings were made by the “patch clamp” technique in the “whole cell” configuration using an Axopatch200B amplifier controlled by a Digidata interface and the pClamp10 software (Molecular Devices). The extracellular recording solution containing 2 mM calcium is described above.
# The intrapipette solution used for the recordings has the following composition: CsCl 130 mM, HEPES 10 mM, EGTA 10 mM, CaCl2 2 mM, MgCl2 1 mM, MgATP 4 mM, TrisGTP 0.3 mM (pH 7.3 with NaOH). The results are analyzed using [sequence] (registered trademark), EXCEL (registered trademark) and [sequence] (registered trademark) software. […]
# These “dose-effect” curves were analyzed with [sequence] […]
# C57BL/6J mice [2] = assay: Tail immersion test in a water bath at 46° C. (thermal pain); format: in vivo; conditions: intrathecal injection, 10 and 100 nM, versus control group receiving physiological solution
# Procedure: Mice are used for observing the analgesic effect of the peptide of the invention with respect to pain induced by thermal stimuli.
# (§1) The mice are C57BL/6J wild-type mice and C57BL/6J CaV3.2−/− mice. The total number of mice is 10 wild-type and 10 CaV3.2−/−.
# Two groups of mice (C57BL/6J) are used, one group injected intrathecally with a physiological solution comprising the peptide of the invention at a concentration of 10 and 100 nM and a second group (control group) receiving only intrathecal injection of physiological solution alone. The mice are then submitted to the test of immersion of the tail in a water bath at 46° C. The purpose of this experiment is to determine the time after which the mice react to the painful heat, thus showing the threshold of appearance of the painful signal connected with perception of heat. The same experiment is conducted in parallel on two other groups of C57BL/6J mice lacking the gene coding for the T-type calcium channel encoded by the CaV3.2 subunit. The purpose of this experiment is to show the selectivity of the peptide of the invention.
# C57BL/6J mice [3] = assay: Mechanical stimulation test with von Frey bristles; format: in vivo; conditions: intrathecal injection, 10 and 100 nM, versus control group receiving physiological solution
# Procedure: Mice are used for observing the analgesic effect of the peptide of the invention with respect to mechanical stimuli.
# as §1
# Two groups of mice (C57BL/6J) are used, one group injected intrathecally with a physiological solution comprising the peptide of the invention at a concentration of 10 and 100 nM and a second group (control group) only receiving intrathecal injection of the physiological solution alone. The mice are then submitted to the mechanical stimulation test with von Frey bristles. The purpose of this experiment is to determine the threshold of reaction to a mechanical stimulus of increasing intensity applied on the arch of the foot. The animals' reaction threshold is correlated with the appearance of the painful signal connected with the perception of mechanical pressure. The same experiment is conducted in parallel on two other groups of C57BL/6J mice lacking the gene coding for the T-type calcium channel encoded by the CaV3.2 subunit. The purpose of this experiment is to show the selectivity of the peptide of the invention.
Compound,current of the Cav3.2 channel after application of the toxin (human Cav3.2),Hill number (slope of dose-effect curve) [1],time to react to heat (C57BL/6J mice [2]),threshold of perception of mechanical pressure (C57BL/6J mice [3])
CC[C@H](C)[C@H](NC(=O)[C@H](CCCCN)NC(=O)[C@@H]1CSSC[C@@H]2NC(=O)[C@@H]3CCCN3C(=O)[C@H](CCCNC(=N)N)NC(=O)[C@H](CCC(=O)O)NC(=O)[C@H](CO)NC(=O)[C@H](CC(=O)O)NC(=O)[C@@H]3CSSC[C@H](NC(=O)[C@H](C(C)C)NC(=O)[C@H](CC(C)C)NC(=O)CNC(=O)[C@H](CCC(=O)O)NC(=O)[C@H](CSSC[C@H](NC(=O)[C@@H](N)Cc4ccc(O)cc4)C(=O)N[C@@H](CCC(N)=O)C(=O)N[C@@H](CCCCN)C(=O)N[C@@H](Cc4ccccc4)C(=O)N[C@@H](CC(C)C)C(=O)N[C@@H](Cc4c[nH]c5ccccc45)C(=O)N[C@@H]([C@@H](C)O)C(=O)N3)NC2=O)C(=O)N[C@@H](CCCNC(=N)N)C(=O)N[C@@H](CC(C)C)C(=O)N[C@@H](Cc2c[nH]c3ccccc23)C(=O)N1)C(=O)N[C@@H](CC(N)=O)C(=O)O [natural toxin],strongly inhibited,0.87,–,–
CC[C@H](C)[C@H](NC(=O)[C@H](CCCCN)NC(=O)[C@@H]1CSSC[C@@H]2NC(=O)[C@@H]3CCCN3C(=O)[C@H](CCCNC(=N)N)NC(=O)[C@H](CCC(=O)O)NC(=O)[C@H](CO)NC(=O)[C@H](CC(=O)O)NC(=O)[C@@H]3CSSC[C@H](NC(=O)[C@H](C(C)C)NC(=O)[C@H](CC(C)C)NC(=O)CNC(=O)[C@H](CCC(=O)O)NC(=O)[C@H](CSSC[C@H](NC(=O)[C@@H](N)Cc4ccc(O)cc4)C(=O)N[C@@H](CCC(N)=O)C(=O)N[C@@H](CCCCN)C(=O)N[C@@H](Cc4ccccc4)C(=O)N[C@@H](CC(C)C)C(=O)N[C@@H](Cc4c[nH]c5ccccc45)C(=O)N[C@@H]([C@@H](C)O)C(=O)N3)NC2=O)C(=O)N[C@@H](CCCNC(=N)N)C(=O)N[C@@H](CC(C)C)C(=O)N[C@@H](Cc2c[nH]c3ccccc23)C(=O)N1)C(=O)N[C@@H](CC(N)=O)C(=O)O [synthetic peptide],–,0.89,–,–
"YCQKFLWTCDSERPCCEGLVCRLWCKIN (disulfide (positions not given here); not fully specified (bridges); also: 3 disulfide bridges between the 6 cysteines, pairing not given here) [peptide of sequence SEQ ID NO 1]",–,–,significantly longer,significantly higher
